Compound | melting point [°C]
CCCCC1=NC(CC)(CC)C(=O)N1Cc1ccc(-c2cccc(OC(CC)C(=O)O)c2)cc1 (stereo not drawn) [Compound 64, 2-butyl-1-[(3′-((1-carboxy-1-ethylmethyl)oxy)biphenyl-4-yl)methyl]-4,4-diethyl-1H-imidazol-5(4H)one] | 184
CCCCC1=NC2(CCCC2)C(=O)N1Cc1ccc(-c2cccc(OC(CC)c3nnn[nH]3)c2)cc1 (stereo not drawn) [Compound 99, 2-butyl-1-[(3′-((1-(tetrazol-5-yl)-1-ethylmethyl)oxy)-biophenyl-4-yl)methyl]-4-spirocyclopentyl-1H-imidazol-5(4H)-one] | 76
CCCCC1=NC2(CCCCC2)C(=O)N1Cc1ccc(-c2cc(OC(C)C(=O)O)ccc2F)cc1 (stereo not drawn) [Compound 57, 2-butyl-1-[(3′-((1-carboxy-1-methylmethyl)oxy)-6′-fluoro-biphenyl-4-yl)methyl]-4-spirocyclohexyl-1H-imidazol-5(4H)-one] | 96
CCCCC1=NC2(CCCC2)C(=O)N1Cc1ccc(-c2cc(OC(C(=O)O)C(C)C)ccc2CCC)cc1 (stereo not drawn) [Compound 86, 2-butyl-1-[(3′-((1-carboxy-1-(1,1-dimethylmethyl)methyl)oxy)-6′-propyl-biphenyl-4-yl)methyl]-4-spirocyclopentyl-1H-imidazol-5(4H)-one] | 81
CCCCC1=NC2(CCCCC2)C(=O)N1Cc1ccc(-c2cccc(OC(C)(C)C(=O)O)c2)c(C)c1 [Compound 72] | 140
CCCCC1=NC(CC)(CC)C(=O)N1Cc1ccc(-c2cccc(OC(C)C(=O)O)c2)cc1 (stereo not drawn) [Compound 66, 2-butyl-1-[(3′-((1-carboxy-1-methylmethyl)oxy)biphenyl-4-yl)methyl]-4,4-diethyl-1H-imidazol-5(4H)one] | 186
CCCCC1=NC(CC)(CC)C(=O)N1Cc1ccc(-c2cccc(OC(C)(C)C(=O)O)c2)cc1 [Compound 65, 2-butyl-1-[(3′-((1-carboxy-1,1-dimethylmethyl)oxy)biphenyl-4-yl)methyl]-4,4-diethyl-1H-imidazol-5(4H)one] | 144
CC1=NC2(CCCC2)C(=O)N1Cc1ccc(-c2cccc(OC(C)(C)C(=O)O)c2)cc1 [Compound 18, 1-[(3′-((1-carboxy-1,1-dimethylmethyl)oxy)biphenyl-4-yl)methyl]-2-methyl-4-spirocyclopentyl-1H-imidazol-5(4H)-one] | 81 to 88
CCCCC1=NC2(CCCCC2)C(=O)N1Cc1ccc(-c2cccc(OC(C(=O)O)C(C)C)c2)cc1 (stereo not drawn) [Compound 55, 2-butyl-1-[(3′-((1-carboxy-1-(1,1-dimethylmethyl)methyl)oxy)-biphenyl-4-yl)methyl]-4-spirocyclohexyl-1H-imidazol-5(4H)-one] | 105
CCCCC1=NC2(CCCCC2)C(=O)N1Cc1ccc(-c2cc(OCC(=O)O)ccc2F)cc1 [Compound 56, 2-butyl-1-[(3′-((1-carbonylmethyl)oxy)-6′-fluoro-biphenyl-4-yl)methyl]-4-spirocyclohexyl-1H-imidazol-5(4H)-one] | 102 to 105
CCCCC1=NC2(CCCC2)C(=O)N1Cc1ccc(-c2ccc(CCC)c(OC(C)(C)C(=O)O)c2)cc1 [Compound 98, 2-butyl-1-[(3′-((1-carboxy-1,1-dimethylmethyl)oxy)-4′-propyl-biphenyl-4-yl)methyl]-4-spirocyclopentyl-1H-imidazol-5(4H)-one] | 74
CCCC1=NC2(CCCC2)C(=O)N1Cc1ccc(-c2cccc(OC(C)(C)C(=O)O)c2)cc1 [Compound 16, 1-[(3′-((1-carboxy-1,1-dimethylmethyl)oxy)biphenyl-4-yl)methyl]-2-propyl-4-spirocyclopentyl-1H-imidazol-5(4H)-one] | 134 to 190
CCCCC1=NC2(CCCC2)C(=O)N1Cc1ccc(-c2cc(OCC(=O)O)ccc2CCC)cc1 [Compound 84, 2-butyl-1-[(3′-((1-carboxymethyl)oxy)-6′-propyl-biphenyl-4-yl)methyl]-4-spirocyclopentyl-1H-imidazol-5(4H)-one] | 76
CCCCC1=NC2(CCCC2)C(=O)N1Cc1ccc(-c2cccc(OCC#N)c2)cc1 [Compound 23, 2-butyl-1-[(3′-(cyanomethoxy)biphenyl-4-yl)methyl]-4-spirocyclopentyl-1H-imidazol-5(4H)-one] | 128 to 130
CC(C)CC1=NC2(CCCC2)C(=O)N1Cc1ccc(-c2cccc(OC(C)(C)C(=O)O)c2)cc1 [Compound 27, 1-[(3′-((1-carboxy-1,1-dimethylmethyl)oxy)biphenyl-4-yl)methyl]-2-(2-methyl)propyl-4-spirocyclopentyl-1H-imidazol-5(4H)-one] | 213 to 216
CCCCC1=NC2(CCCC2)C(=O)N1Cc1ccc(-c2ccc(CC(C)C)c(OC(C)(C)C(=O)O)c2)cc1 [Compound 81, 2-butyl-1-[(3′-((1-carboxy-1,1-dimethylmethyl)oxy)-4′-isobutyl-biphenyl-4-yl)methyl]-4-spirocyclopentyl-1H-imidazol-5(4H)-one] | 78
CCCCC1=NC2(CCCCC2)C(=O)N1Cc1ccc(-c2cccc(OC(CC)C(=O)O)c2)cc1 (stereo not drawn) [Compound 54, 2-butyl-1-[(3′-((1-carboxy-1-ethylmethyl)oxy)biphenyl-4-yl)methyl]-4-spirocyclohexyl-1H-imidazol-5(4H)-one] | 170
CCCCC1=NC2(CCCCC2)C(=O)N1Cc1ccc(-c2cccc(OC(CC)C(=O)O)c2)c(C)c1 (stereo not drawn) [Compound 71, 2-butyl-1-[(3′-((1-carboxy-1-ethylmethyl)oxy)-3-methyl-biphenyl-4-yl)methyl]-4-spirocyclohexyl-1H-imidazol-5(4H)one] | 77
CCCCC1=NC(c2ccccc2)C(=O)N1Cc1ccc(-c2cc(Br)ccc2OC(C)(C)C(=O)O)cc1 (stereo not drawn) [Compound 26, 1-[(5′-bromo-2′-((1-carboxy-1,1-dimethylmethyl)oxy)biphenyl-4-yl)methyl]-2-butyl-4-phenyl-1H-imidazol-5(4H)-one] | 199 to 201
CCCCC1=NC2(CCCC2)C(=O)N1Cc1ccc(-c2cc(OC(C)(C)C(=O)O)ccc2CC(C)C)cc1 [Compound 87, 2-butyl-1-[(3∝-((1-carboxy-1,1-dimethylmethyl)oxy)-6′-isobutyl-biphenyl-4-yl)methyl]-4-spirocyclopentyl-1H-imidazol-5(4H )-one] | < 50
CCCCC1=NC2(CCCC2)C(=O)N1Cc1ccc(-c2cc(OC(C)(C)C(=O)O)ccc2C#N)cc1 [Compound 89, 2-butyl-1-[(3′-((1-carboxy-1.1-dimethylmethyl)oxy)-6′-cyano-biphenyl-4-yl)methyl]-4-spirocyclopentyl-1H-imidazol-5(4H)-one] | < 50
CCCCC1=NC2(CCCC2)C(=O)N1Cc1ccc(-c2cccc(OC(C)(C)C(=O)O)c2)c(OC)c1 [Compound 90] | 157
CCCCC1=NC(CC)(CC)C(=O)N1Cc1ccc(-c2cccc(OC(C(=O)O)C(C)C)c2)cc1 (stereo not drawn) [Compound 63, 2-butyl-1-[(3′-((1-carboxy-1-(1,1-dimethylmethyl)methyl)oxy)-biphenyl-4-yl)methyl]-4,4-diethyl-1H-imidazol-5(4H)-one] | 65
CCCCC1=NC2(CCCC2)C(=O)N1Cc1cccc(-c2cccc(OC(C)(C)C(=O)O)c2)c1 [Compound 74, 2-butyl-1-[(3′-((1-carboxy-1,1-dimethylmethyl)oxy)biphenyl-3-yl)methyl]-4-spirocyclopentyl-1H-imidazol-5(4H)-one] | 70
